{"source": "patent US9241928B2", "about": "“Antimicrobial compounds” (The General Hospital Corporation, priority 2009, dated 2016)", "test_system": "P. aeruginosa strain PA14 infection in Caenorhabditis elegans", "assay": "Liquid assay for PA14 infection of C. elegans", "type": "in vivo", "method": "A liquid assay for PA14 infection of C. elegans in a 96-well plate format was developed. In brief, temperature-sterile glp-4 and glp-4;sek-1 worms were synchronized according to standard protocols. L1 larvae were plated, incubated for 16 hours at 15° C., and then for an additional 48 hours at […], which brought them to a young adult stage. In parallel, PA14 bacteria were grown overnight prior to being plated on SK medium plates (see Tan et al., Proc. Natl. Acad. Sci., 96(2): 715-720). PA14-inoculated plates were incubated for 24 hours at 37° C. prior to an 18 hours incubation at 25° C. Subsequently, bacteria were removed from plates and resuspended in S Basal media (see Stiernagle, (2006) “Maintenance of C. elegans” WormBook, ed. The C. elegans. Research Community http://www.wormbook.org/). 96-well polystyrene plates were prepared with a medium containing either 20% SK and 80% S Basal or 50% SK and 50% S Basal, with a bacterial density of OD600=0.03. […] Dispensation of 25 young adult glp-4 or glp-4; sek-1 worms to each well using a COPAS BioSort robot brought the final total volume to […]. After worms were added, each plate was sealed with a gas permeable membrane and incubated for 48 hours at 25° C. […] Worms were stained for 18 hours at 20° C. and each well was photographed using bright-field and red fluorescence channels with a Molecular Devices Discovery-1 Microscope."}
{"smiles": "NNc1ccc2c(Cl)cc(Cl)c(O)c2n1", "note": "[Compound 11]", "values": [{"measurement": "mortality of PA14-infected worms", "setting": "3.125 μg/mL, glp-4 and glp-4;sek-1 worms, 48 hours", "result": "≤ 30", "unit": "%"}, {"measurement": "effect of increasing the dosage on efficacy", "setting": "6.25 and 20 μg/mL versus 3.125 μg/mL", "result": "did not increase its efficacy"}]}
